Data as given in patent US20090075972A1, “Use of Midostaurin for Treating Gastrointestinal Stromal Tumors” (priority 2004, published 2009).
Like-named read-outs stand apart in the source and are kept apart here.

Columns and labels:
[1] = molecular target: T1, PDGFRA D842V (Homo sapiens, UniProt P16234, D842V); assay: Dose response curves of Ba/F3 cells expressing mutant kinase (viable cells after 24 hrs); assay type: cell-based
T1 construct: expressed in transfected cells; host or cells: Ba/F3 murine cells, retroviral transduction with pMSCV-puro
Protocol: (§1) Construct: Mutant PDGFRA and KIT cDNA are obtained by RT-PCR on RNA isolated from progressive tumors. The cDNA's are cloned into the retroviral vector pMSCV-puro (Clontech).
(§2) Cell culture: 293T cells are grown in DMEM supplemented with 10% FCS. Ba/F3 cells are grown in RPMI-1640 supplemented with 10% FCS and interleukin-3 (1 ng/ml). Virus as produced as described previously, see e.g. Cools J. et al., N Engl J Med 2003; 348:1201-1214.
(§3) .Ba/F3 cells transduced with the different constructs are selected with puromycin (2 μg/ml). To test for factor independent growth, Ba/F3 cells are washed 3 times in PBS and new cultures are initiated in the absence of interleukin-3. Cells that became independent on interleukin-3, are maintained in the absence of interleukin-3. For dose-response curves, Ba/F3 cells are grown in 24-well plates with different concentrations of inhibitor. The number of viable cells is determined at the start and after 24 hrs, using the AqueousOne solution (Promega).
(§4) Ba/F3 cells are IL3 dependent for their growth, but become IL3 independent upon the expression of many activated kinases, such as FIP1 L1-PDGFRA and BCR-ABL. […] The PDGFRA ΔDIM842-844 mutant serve as a control in this experiment.

[2] = molecular target: T2, PDGFRA ΔDIM842-844 (Homo sapiens, UniProt P16234, DEL842-844); assay: as above; assay type: cell-based
T2 construct: expressed in transfected cells; host or cells: Ba/F3 murine cells, retroviral transduction with pMSCV-puro
Protocol: as §1, §2, §3, §4

[3] = molecular target: T3, KITΔ557-558/T670I (Homo sapiens, UniProt P10721, DEL557-558/T670I); details: Ba/F3 cells
Protocol: as §1, §2, §3, §4

[4] = human trials; cited from earlier work
[5] = molecular target: KITInsAY502-503/V654A (Homo sapiens, UniProt P10721, INS503AY/V654A); details: KITIns503AY/V654A cells
Protocol: (§5) Western-blot: Snap-frozen tumor specimens sufficient for preparation of cell lysates were available from ten refractory GISTs. Cell lysis, SDS-PAGE and immunoblotting were carried out as described.^21 Membranes (Amnersham Pharmacia Biotechnology, UK) were immunoblotted overnight using anti-phospho-KIT (Y703) (Zymed, San Francisco, Calif.) antibody at dilution of 1:500. The HRP-conjugated anti-rabbit IgG was used at a dilution of 1:2500 and visualized with Enhanced Chemiluminescence (Pierce). Membranes were then stripped and re-blotted to determine total protein levels using an antibody recognizing total KIT protein (anti-CD117, A4502, DAKO, Glostrup, Denmark).
(§6) Experiments are performed with serial dilutions of the 10 mM stock. Controls are performed with solvent (DMSO) dilutions. Primary cells are obtained from collagenase disaggregated progressive tumor specimens, seeded at 60-70% confluence in 100-mm cell culture dishes (Corning Inc., Corning, N.Y.) and grown for three days in DMEM supplemented with 10% fetal bovine serum, 0.1 mM nonessential amino acids, and 1.0 mM sodium pyruvate.
(§7) The results are compared with GIST882 cells, which carry a hemizygous KIT K642E mutation. Observations are standardized for total KIT expression using anti-KIT antibody.

[6] = molecular target: T3, KITΔ557-558/T670I; details: 90 min, KITΔ557-558/T670I cells
Protocol: as §5, §6, §7

[7] = tested on: T674 I mutant form of FIPL1-PDGFRA; details: refractory CEL patients; Cools J. et al., Cancer Cell 2003; cited from earlier work
[8] = tested on: GISTs; details: one reported study; cited from earlier work

SMILES	inhibition of PDGFRA D842V mutant ([1]; 1 μM)	concentration at which mutant is inhibited ([1]; PDGFRA D842V)	concentration at which mutant is inhibited [2]	concentration at which mutant is inhibited [3]	Maximum Tolerated Dose (MTD), total dose [4]	KIT autophosphorylation ([5]; 0.5 μM, 90 min)	KIT autophosphorylation ([5]; ten-fold higher concentration than 0.5 μM)	KIT autophosphorylation ([6]; 0.5 μM)	KIT autophosphorylation ([6]; 1 μM)	inhibitory activity against imatinib-resistant T674I FIPL1-PDGFRA [7]	patients with primary resistance to imatinib [8]
CO[C@@H]1[C@H](N(C)C(=O)c2ccccc2)C[C@H]2O[C@]1(C)n1c3ccccc3c3c4c(c5c6ccccc6n2c5c31)C(=O)NC4 [PKC412, N-[(9S,10R,11R,13R)-2,3,10,11,12,13-hexahydro-10-methoxy-9-methyl-1-oxo-9,13-epoxy-1H,9H-diindolo[1,2,3-gh:3′,2′,1′-lm]pyrrolo[3,4-j][1,7]benzodiazonin-11-yl]-N-methylbenzamide]	efficiently inhibits	below 1 μM	below 1 μM	below 1 μM	~225 mg/day	reduced	completely inhibited	reduced	totally inhibit	full inhibitory activity	–
Cc1ccc(NC(=O)c2ccc(CN3CCN(C)CC3)cc2)cc1Nc1nccc(-c2cccnc2)n1 [imatinib]	–	–	–	–	–	–	–	–	–	–	13.7%
